The subject of data set [1] is SUDHL5. As to the kind of experiment: Anti-proliferative effect (CellTiter-Glo, 72 h), SUDHL5. It is filed as cell-based. The following applies: SUDHL5 cells, antiproliferation, 72 h incubation, median, read-out: Antiproli SUDHL5 [M] (median). The gist of the method: (§1)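 Cells plated and incubated with compounds for 72 h at 37 °C, with a parallel day 0 reference plate for time-zero signal. Viability read by CellTiter-Glo luminescence after 10 min, measured identically on the day 0 and 72 h plates.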
For orientation: ATP-based viability assays read luminescence as a measure of living cells.

Data set [2] has as its system SUDHL10. As to the kind of experiment: Anti-proliferative effect (CellTiter-Glo, 72 h), SUDHL10. It is filed as cell-based. To be noted: SUDHL10 cells, antiproliferation, 72 h incubation, median, read-out: Antiproli SUDHL10 [M] (median). The gist of the method: as §1
The subject of data set [3] is SUDHL5. As to the kind of experiment: Induction of cytotoxicity (CellTiter-Glo, 5 h), SUDHL5. To be noted: read-out: Cytotox SUDHL5 [M] (median); SUDHL5 cells, cytotoxicity induction, CellTiter-Glo, 5 h incubation, median.
In data set [4] the test system is SUDHL5. Kind of data set: Induction of caspase-3/7 activity (Caspase-Glo 3/7), SUDHL5. Type of data set: cell-based. The following applies: caspase-3/7 induction, SUDHL5 cells, 3 h treatment; median. Summed up: (§2)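 DLBCL lines SUDHL5 and SUDHL10 treated with compounds for 3 h at 37 °C; caspase-3/7 activity read by Caspase-Glo 3/7 luminescence. Medium-only background subtracted; EC50 fitted with bottom fixed at 1 and top fixed at the reference compound's maximal induction.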

Data set [5] relates to A2780. Kind of data set: Anti-proliferative effect (CellTiter-Glo, 72 h), A2780. Type of data set: cell-based. The following applies: A2780 cells, median, read-out: IC50 antiproliferation assay A2780 [M] (median). Summed up:
as §1

Data set [6] concerns SUDHL10. Kind of data set: Induction of cytotoxicity (CellTiter-Glo, 5 h), SUDHL10. The following applies: read-out: Cytotox SUDHL10 [M] (median); SUDHL10 cells, cytotoxicity induction, CellTiter-Glo, 5 h incubation, median.
The target of data set [7] is MCL-1 (Homo sapiens, UniProt Q07820). As to the kind of experiment: Protein-protein interaction assay MCL-1/Noxa BH3 peptide (MCL-1 assay), TR-FRET. It is filed as binding. To be noted: MBP-MCL-1 / Noxa BH3-derived peptide, median. Summed up:
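IC50 came from a 4-parameter fit of the normalized 665/620 nm TR-FRET ratio (anti-MBP Eu-cryptate/streptavidin-XL665). Compounds (0.1 nM–20 μM, duplicates) were preincubated 10 min at 22 °C with 1 nM MBP-MCL-1 in pH 7 Tris/NaCl/KF buffer, then read after 1 h at 22 °C plus overnight at 4 °C.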
Background: Time-resolved FRET reads energy transfer from a long-lived donor to a nearby acceptor.

For data set [8], the system named is SUDHL10. Kind of data set: Induction of caspase-3/7 activity (Caspase-Glo 3/7), SUDHL10. It is filed as cell-based. To be noted: caspase-3/7 induction, SUDHL10 cells, 3 h treatment; median. Summed up:
as §2

Results on ten molecules are retold here after patent publication US10981932B2, “Macrocyclic indole derivatives” (Bayer Aktiengesellschaft, priority 2016, dated 2021).

Counter-ions that a name gives are not always drawn. Where only a bound is given, the exact number is not on record here.

Sequence of MCL-1 (Q07820 whole entry): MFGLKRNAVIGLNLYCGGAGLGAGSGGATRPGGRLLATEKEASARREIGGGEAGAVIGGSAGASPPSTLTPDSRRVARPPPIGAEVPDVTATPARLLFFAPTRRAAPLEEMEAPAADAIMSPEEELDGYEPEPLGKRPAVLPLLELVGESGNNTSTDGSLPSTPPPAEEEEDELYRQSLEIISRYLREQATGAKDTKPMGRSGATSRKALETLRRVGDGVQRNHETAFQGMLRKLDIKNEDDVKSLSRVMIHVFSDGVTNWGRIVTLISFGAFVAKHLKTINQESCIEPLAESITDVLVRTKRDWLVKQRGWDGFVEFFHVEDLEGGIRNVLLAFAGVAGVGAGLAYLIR

Broadly, the EC50 is the concentration needed to bring the measured effect to its halfway point. A lower EC50 goes with greater potency. Regarding `COCCn1nc2c(c1C1CC1)-c1cccc3c(CCCOc4cccc5ccccc45)c(C(=O)O)n(c13)CCCCOC2` (single isomer, unassigned; enantiomer 2) [Example 086, 3-Cyclopropyl-2-(2-methoxyethyl)-7-[3-(naphthalen-1-yloxy)propyl]-2,10,11,12,13,15-hexahydropyrazolo[4′3′:9,10][1,6]oxazacycloundecino[8,7,6-hi]indole-carboxylic acid-N-ethylethanamine Salt (Enantiomer 2)], the IC50 in data set [1] is 1.72e-05 M; in data set [2], 7e-06 M; in data set [3], 3.15e-05 M; in data set [5] it was 1.36e-05 M; in data set [6], more than 3.3e-05 M; in data set [7] it was 0.0728 µM. Further, the EC50 in data set [4] and in data set [8] was more than 33 µM each time.

Regarding `Cc1c2c(nn1C1CC1)COCCCCn1c(C(=O)O)c(CCCOc3cccc4ccccc34)c3cccc-2c31` (single isomer, unassigned; enantiomer 2) [Example 094, 2-cyclopropyl-3-methyl-7-[3-(naphthalen-1-yloxy)propyl]-2,10,11,12,13,15-hexahydropyrazolo[4′,3′:9,10][1,6]oxazacycloundecino[8,7,6-hi]indole-8-carboxylic acid-N-ethylethanamine Salt (Enantiomer 2)], the IC50 in data set [1] is 3.11e-05 M; in data set [2] it was 1.64e-05 M; in data set [3] it was more than 3.3e-05 M; in data set [5] it was 2.58e-05 M; in data set [6], more than 3.3e-05 M; in data set [7], 0.12 µM. Further, the EC50 in data set [4] and in data set [8] was more than 33 µM each time.

On to `Cc1nn(CCN2CCOCC2)c2c1-c1cccc3c(CCCOc4cccc5ccccc45)c(C(=O)O)n(c13)CCCCOC2` (single isomer, unassigned; enantiomer 2) [Example 097, 3-methyl-1-[2-(morpholin-4-yl)ethyl]-7-[3-(naphthalen-1-yloxy)propyl]-1,10,11,12,13,15-hexahydropyrazolo[4′,3′:9,10][1,6]oxazacycloundecino[8,7,6-hi]indole-carboxylic acid-N-ethylethanamine Salt (Enantiomer 2)], for which the IC50 in data set [1] is 2.25e-05 M; in data set [2] it was 1.21e-05 M; in data set [3], 3.05e-05 M; in data set [5], 2.84e-05 M; in data set [6] it was more than 3.3e-05 M; in data set [7] it was 0.0589 µM. For the same molecule, the EC50 in data set [4] and in data set [8] was more than 33 µM in each case.

Take `COCCn1nc(C2CC2)c2c1COCCCCn1c(C(=O)O)c(CCCOc3cccc4ccccc34)c3cccc-2c31` (single isomer, unassigned; enantiomer 2) [Example 104, 3-cyclopropyl-1-(2-methoxyethyl)-7-[3-(naphthalen-1-yloxy)propyl]-1,10,11,12,13,15-hexahydropyrazolo[4′,3′:9,10][1,6]oxazacycloundecino[8,7,6-hi]indole-8-carboxylic acid-N-ethylethanamine Salt (Enantiomer 2)]: the IC50 in data set [1] is 2e-05 M; in data set [2] it was 1.02e-05 M; in data set [3], more than 3.3e-05 M; in data set [5] it was 2.21e-05 M; in data set [6], more than 3.3e-05 M; in data set [7], 0.106 µM. In addition, the EC50 in data set [4] and in data set [8] was more than 33 µM throughout.

For the molecule `COCCn1nc2c(c1C)-c1cccc3c(CCCOc4cccc5ccccc45)c(C(=O)O)n(c13)CCCCOC2` (single isomer, unassigned; enantiomer 2) [Example 108, 2-(2-methoxyethyl)-3-methyl-7-[3-(naphthalen-1-yloxy)propyl]-2,10,11,12,13,15-hexahydropyrazolo[4′,3′:9,10][1,6]oxazacycloundecino[8,7,6-hi]indole-8-carboxylic acid-N-ethylethanamine Salt (Enantiomer 2)], the IC50 in data set [1] is 1.51e-05 M; in data set [2] it was 1.17e-05 M; in data set [3] it was more than 3.3e-05 M; in data set [5], 1.52e-05 M; in data set [6] it was more than 3.3e-05 M; in data set [7] it was 0.0543 µM. Moreover, the EC50 in data set [4] and in data set [8] was more than 33 µM each time.

On to `Cc1nn(CC(F)(F)F)c2c1-c1cccc3c(CCCOc4cccc5ccccc45)c(C(=O)O)n(c13)CCCCOC2` (single isomer, unassigned; enantiomer 2) [Example 111, 3-methyl-7-[3-(naphthalen-1-yloxy)propyl]-1-(2,2,2-trifluoroethyl)-1,10,11,12,13,15-hexahydropyrazolo[4′,3′:9,10][,6]oxazacycloundecino[8,7,6-hi]indole-8-carboxy ic acid-N-ethylethanamine Salt (Enantiomer 2)], for which the IC50 in data set [1] is more than 3.3e-05 M; in data set [2], 5.45e-06 M; in data set [3], more than 3.3e-05 M; in data set [5], 2.61e-05 M; in data set [6] it was more than 3.3e-05 M; in data set [7] it was 0.327 µM. Moreover, the EC50 in data set [4] and in data set [8] was more than 33 µM throughout.

As for `Cn1nc(CN2CCOCC2)c2c1COCC=CCn1c(C(=O)O)c(CCCOc3cccc4ccccc34)c3cccc-2c31` (single isomer, unassigned; enantiomer 2) [Example 134, (E)-1-methyl-3-(morpholin-4-ylmethyl)-7-[3-(naphthalen-1-yloxy)propyl]-1,13,15-tetrahydropyrazolo[4′,3′:9,10][1,6]oxazacycloundecino[8,7,6-hi]indole-8-carboxylic acid-N-ethylethanamine Salt (Enantiomer 2)], the IC50 in data set [1] was 2.14e-05 M; in data set [2] it was 1.63e-05 M; in data set [3] it was more than 3.3e-05 M; in data set [5], 2.07e-05 M; in data set [6] it was more than 3.3e-05 M; in data set [7] it was 0.322 µM. The EC50 in data set [4] and in data set [8] was more than 33 µM in each case.

Regarding `CCc1c2c(nn1C)CN(C)CCCn1c(C(=O)O)c(CCCOc3cccc4ccccc34)c3ccc(C)c-2c31` (single isomer, unassigned; enantiomer 2) [Example 146, 11-Ethyl-7,10,12-trimethyl-1-[3-(1-naphthyloxy)propyl]-4,5,6,7,8,10-hexahydropyrazolo[3′,4′:7,8][1,5]diazecino[9,10,1-hi]indole-2-carboxylic acid-N-ethylethanamine Salt (Enantiomer 2)], the IC50 in data set [1] is 1.93e-05 M; in data set [2], 1.05e-05 M; in data set [3], 1.66e-05 M; in data set [5], 1.37e-05 M; in data set [6], 2.67e-05 M; in data set [7], 0.00901 µM. The EC50 in data set [4] and in data set [8] was more than 33 µM each time.

As for `Cn1nc(CCN2CCOCC2)c2c1COCCCCn1c(C(=O)O)c(CCCOc3cccc4ccccc34)c3cccc-2c31` (single isomer, unassigned; enantiomer 2) [Example 152, 1-methyl-3-(2-(morpholin-4-yl)ethyl-7-[3-(naphthalen-1-yloxy)propyl]-11,10,11,12,13,15-hexahydropyrazolo[4′,3′:9,10][1,6]oxazacycloundecino[8,7,6-hi]indole-8-carboxylic acid-N-ethylethanamine Salt (Enantiomer 2)], the IC50 in data set [1] is more than 3.3e-05 M; in data set [2] it was 1.76e-05 M; in data set [3] it was more than 3.3e-05 M; in data set [5], more than 3.3e-05 M; in data set [6] it was more than 3.3e-05 M; in data set [7], 0.379 µM. Moreover, the EC50 in data set [4] and in data set [8] was more than 33 µM throughout.

On to `Cc1nn(CC(F)(F)F)c2c1-c1cccc3c(CCCOc4cccc5c4CCCC5)c(C(=O)O)n(c13)CCCCOC2` (single isomer, unassigned; enantiomer 2) [Example 163, 3-methyl-7-[3-(5,6,7,8-tetrahydronaphthalen-1-yloxy)propyl]-1-(2,2,2-trifluoroethyl)-1,10,11,12,13,15-hexahydropyrazolo[4′,3′:9,10][1,6]oxazacycloundecino[8,7,6-hi]indole-8-carboxylic acid-N-ethylethanamine Salt (Enantiomer 2)], for which the IC50 was 1.17e-05 M in data set [1]; 6.35e-06 M in data set [2] (Homo sapiens, SU-DHL10, 72 h); 2.93e-05 M in data set [3]; 2.75e-05 M in data set [5]; more than 3.3e-05 M in data set [6]; 0.637 µM in data set [7]. Further, the EC50 in data set [4] and in data set [8] was more than 33 µM throughout.
